Measurements: article PMC11428279, “Exploring Structure–Activity Relationships and Modes of Action of Laterocidine” (ACS Central Science, 2024)
In brackets after ≈: the same amount, converted by molar mass. Bridge positions count the residues as written; N and C are the ends. Square brackets hold non-standard residues; d marks the D form. Peptide text beside a SMILES is read from it. * marks the point of attachment. dOrn = NCCC[C@@H](N)C(=O)O; Nonanoyl = CCCCCCCCC(=O)*; Orn = NCCC[C@H](N)C(=O)O

Experiments:
A. baumannii = assay type: cell-based
Procedure: (§1) MICs for laterocidine and its various analogues were determined by broth microdilution[49] for the following polymyxin-susceptible ATCC and clinical isolates: P. aeruginosa FADDI-PA022, FADDI-PA001, FADDI-PA025, FADDI-PA070, FADDI-PA060; A. baumannii FADDI-AB134, FADDI-AB034, FADDI-AB030, FADDI-AB174, FADDI-AB241; K. pneumoniae FADDI-KP032, FADDI-KP022, BM1, FADDI-KP065, FADDI-KP064, FADDI-KP003; and E. cloacae FADDI-EC001, FADDI-EC003, and FADDI-EC006. Experiments were performed with cation-adjusted Mueller–Hinton broth (CAMHB) in 96-well polystyrene microtiter plates. Wells were inoculated with 100 μL of bacterial suspension prepared in CAMHB (containing ∼10^6 CFU/mL) and 100 μL of CAMHB containing increasing concentrations of polymyxins (0–32 μg/mL). MIC measurements were performed in duplicate, with the MIC being the lowest concentration at which visible growth was inhibited following 18–20 h of incubation at 37 °C. Bacterial killing kinetics was investigated over 24 h as described previously.[50]

P. aeruginosa = assay type: cell-based; conditions: compared with native laterocidine
Procedure: as §1

E. cloacae = assay type: cell-based; conditions: compared with native laterocidine
Procedure: as §1

[1] = test system: Gram-negative strains of P. aeruginosa, A. baumannii, K. pneumoniae, and E. cloacae; assay type: cell-based
Procedure: as §1

A. baumannii 5075D = assay type: cell-based; conditions: lacks lipid A in the outer membrane
[2] = test system: A. baumannii 5075 (wild type); assay: MIC; assay type: cell-based
female Swiss mice = assay: Acute toxicity in mice (maximum tolerable dose); assay type: in vivo; conditions: intravenous bolus via lateral tail vein, free base, N = 3
Procedure: (§2) All animal studies were approved by the Monash University Animal Ethics Committee and involved female Swiss mice (22–28 g, 7-week-old) housed in microisolators within a PC2 animal laboratory. Mice were kept under a 12/12 h dark/light cycle at 20–24 °C and 50–70% ambient humidity.
For the acute toxicity studies, peptide 11 and laterocidine solutions were prepared in 0.9% saline and stored at 4 °C before use. All mice were administered an intravenous bolus of one peptide (mg/kg free base) via a lateral tail vein (≤0.1 mL). Following the injection, mice were released back into their respective home cages and individually monitored for 24 h for signs of clinical toxicity. Mice displaying any signs of toxicity were humanely euthanized according to the recommended Euthanasia/Humane Experimental End point Criteria.

[3] = test system: P. aeruginosa FADDI-PA070; assay: Neutropenic murine bloodstream infection model; assay type: in vivo, P. aeruginosa in mice; conditions: for Bacteria load in blood: 8 mg/kg iv (free base) 2 h postinoculation, neutropenic mice, 4 h time point, N = 3, mean
Procedure: as §2
The neutropenic bloodstream infection model was undertaken as previously described.[39] Mice were rendered neutropenic through intraperitoneal injections of cyclophosphamide administered 4 days (150 mg/kg) and 1 day (100 mg/kg) prior to inoculation. Bloodstream infection was established by administering a 50 μL bolus of early log-phase bacterial suspension (4 × 10^8 CFU/mL). Laterocidine, peptide 11, and polymyxin B solutions were prepared in sterile saline at a concentration of 1 mg/mL (free base). Two hours postinoculation, mice (n = 3) were injected intravenously with either polymyxin B at 4 mg/kg (free base), peptide 11 at 8 mg/kg (free base), laterocidine at 8 mg/kg (free base), or saline (control mice). Blood was collected immediately after (0 h) and 4 h after drug administration, serially diluted with sterile saline, and appropriately diluted samples manually plated on nutrient agar prior to overnight incubation at 37 °C. Colonies were counted manually and the bacterial load (log10 CFU/mL) in the blood of each mouse calculated. In vivo efficacy was calculated as the difference between the log10 CFU/mL blood values of treated and control mice 4 h postdosing (Δlog10 CFU/mL blood = log10 [treated] CFU/mL blood–log10[control] CFU/mL blood).[54]

P. aeruginosa PAO1R [4] = assay: MIC; assay type: cell-based; conditions: polymyxin-resistant paired strain of PAO1
A. baumannii 5075R = assay type: cell-based; conditions: lipid A modified with phosphoethanolamine
P. aeruginosa PAO1 [5] = assay: Static time-kill study; assay type: cell-based; conditions: 8 × MIC, over 24 h
Procedure: as §1

P. aeruginosa PAO1R [6] = assay: Static time-kill study; assay type: cell-based; conditions: 8 × MIC, over 24 h
Procedure: as §1

P. aeruginosa PAO1 [7] = assay: MIC; assay type: cell-based; conditions: polymyxin-susceptible reference strain
[8] = test system: human kidney proximal tubular (HK-2) cells; assay: Viability of human kidney proximal tubular cells; assay type: cell-based; conditions: 24 h of treatment, fluorescence microscopy, mean ± SD, n = 3
Text: The fluorescence microscopy method used to culture HK-2 cells and the use of fluorescence microscopy to determine the percent cell viability (%) following peptide treatment are the same as published previously.[59],[60]

K. pneumoniae = assay type: cell-based
Procedure: as §1

[9] = compared with native laterocidine

Q: For `CCCCCCCCC(=O)N[C@H](CO)C(=O)N[C@H](Cc1ccc(O)cc1)C(=O)N[C@H](Cc1c[nH]c2ccccc12)C(=O)N[C@H](CCCN)C(=O)N[C@@H](CCCN)C(=O)NCC(=O)N[C@H](CCCN)C(=O)N[C@@H](Cc1c[nH]c2ccccc12)C(=O)N[C@H]1COC(=O)CNC(=O)CNC(=O)[C@H](CC(N)=O)NC(=O)[C@H]([C@@H](C)CC)NC1=O` [Peptide 15] (Nonanoyl-[dS][dY][dW][dOrn][Orn]G[dOrn]WSINGG; ester 9-C), which “MICs against A. baumannii (range over strains)” value (A. baumannii) is on record?
A: 8 to 32 µg/mL

Q: And the “fold increase in MIC (loss of activity) against A. baumannii” value (A. baumannii; [9])?
A: 2–8 fold

Q: What about the “fold less activity against the two MDR strains of P. aeruginosa” value (P. aeruginosa) of the same compound?
A: 8–16 fold

Q: What does the source list for `CCCCCCCCC(=O)N[C@H](CO)C(=O)N[C@H](Cc1ccc(O)cc1)C(=O)N[C@H](Cc1c[nH]c2ccccc12)C(=O)N[C@H](CCCN)C(=O)N[C@@H](CCCN)C(=O)NCC(=O)N[C@H](CCCN)C(=O)N[C@@H](Cc1c[nH]c2ccccc12)C(=O)N[C@@H]1C(=O)N[C@@H]([C@@H](C)CC)C(=O)N[C@@H](CC(N)=O)C(=O)NCC(=O)N[C@@H](C)C(=O)O[C@@H]1C` [Peptide 24] (Nonanoyl-[dS][dY][dW][dOrn][Orn]G[dOrn]WTINGA; ester 9-C)?
A: fold increase in MIC for two E. cloacae strains (E. cloacae): 2 fold; fold increase in MIC (loss of activity) against all strains / all species [1, 9]: no more than 1 fold

Q: `CCCCCCCCC(=O)N[C@H](CO)C(=O)N[C@H](Cc1ccc(O)cc1)C(=O)N[C@H](Cc1c[nH]c2ccccc12)C(=O)N[C@H](CCCN)C(=O)N[C@@H](CCCN)C(=O)NCC(=O)N[C@H](CCCN)C(=O)N[C@@H](Cc1c[nH]c2ccccc12)C(=O)N[C@@H]1C(=O)N[C@@H]([C@@H](C)CC)C(=O)N[C@@H](CC(N)=O)C(=O)NCC(=O)NCC(=O)O[C@@H]1C` [Peptide 11] (Nonanoyl-[dS][dY][dW][dOrn][Orn]G[dOrn]WTINGG; ester 9-C) was tested. Which “MIC, A. baumannii 5075 D” value (A. baumannii 5075D) did it give?
A: 32 µg/mL (≈ 19.9 µM)

Q: What about the “MIC, A. baumannii 5075 S” value [2] of the same compound?
A: 8 µg/mL (≈ 4.98 µM)

Q: What about the “maximum tolerable dose (MTD), Iv (Bolus)” value (female Swiss mice) of the same compound?
A: 13.2 mg/kg

Q: What about the “Bacteria load in blood” value [3] of the same compound?
A: 2.70%

Q: What about the “Bacteria load in blood” value ([3]; listed as peptide 11) of the same compound?
A: 2.7%

Q: And the “fold increase in antimicrobial activity compared to native laterocidine (peptide 1)” value ([3]; murine bloodstream infection model, 8 mg/kg)?
A: 8 fold

Q: What about the “MIC, P. aeruginosa PAO1R” value (P. aeruginosa PAO1R [4]) of the same compound?
A: 2 µg/mL (≈ 1.25 µM)

Q: What about the “MIC, A. baumannii 5075 R” value (A. baumannii 5075R) of the same compound?
A: 32 µg/mL (≈ 19.9 µM)

Q: What about the “time-kill outcome against P. aeruginosa PAO1” value (P. aeruginosa PAO1 [5]) of the same compound?
A: substantial bacterial regrowth nevertheless occurred at all concentrations

Q: And the “time-kill outcome against P. aeruginosa PAO1R” value (P. aeruginosa PAO1R [6])?
A: completely inhibiting the growth

Q: What about the “time-kill outcome against P. aeruginosa PAO1R” value (P. aeruginosa PAO1R [6]; listed as peptide 11) of the same compound?
A: no viable bacteria were detected at 24 h

Q: What about the “MIC, P. aeruginosa PAO1” value (P. aeruginosa PAO1 [7]) of the same compound?
A: 2 µg/mL (≈ 1.25 µM)

Q: What about the “MICs against all tested strains (range)” value ([1]; all tested Gram-negative strains) of the same compound?
A: identical MICs to laterocidine

Q: What does the source list for `CC[C@H](C)CCCCC(=O)N[C@@H](CCN)C(=O)N[C@H](C(=O)N[C@@H](CCN)C(=O)N[C@H]1CCNC(=O)[C@H]([C@@H](C)O)NC(=O)[C@H](CCN)NC(=O)[C@H](CCN)NC(=O)[C@H](CC(C)C)NC(=O)[C@@H](Cc2ccccc2)NC(=O)[C@H](CCN)NC1=O)[C@@H](C)O` [polymyxin B, reference compound] (HELM PEPTIDE1{[CC[C@H](C)CCCCC(=O)[*:2]].[Dab].T.[Dab].[Dab].[Dab].[dF].L.[Dab].[Dab].T}$PEPTIDE1,PEPTIDE1,5:R3-11:R2$$$V2.0; N-terminus assumed; bridges inferred)?
A: maximum tolerable dose (MTD), Iv (Bolus) (female Swiss mice): 5 mg/kg; MIC, P. aeruginosa PAO1R (P. aeruginosa PAO1R [4]): 16 µg/mL (≈ 13.3 µM); time-kill outcome against P. aeruginosa PAO1 (P. aeruginosa PAO1 [5]): no viable bacteria were detected at 1 h, rapid and significant regrowth subsequently occurred; time-kill outcome against P. aeruginosa PAO1R (P. aeruginosa PAO1R [6]): no viable bacteria detected at 8 × MIC on multiple occasions, including at 24 h; MIC, P. aeruginosa PAO1 (P. aeruginosa PAO1 [7]): 0.5 µg/mL (≈ 0.415 µM); cell viability of HK-2 cells ([8]; 0.01 mM): 74.8 ± 2.6%; cell viability of HK-2 cells ([8]; 0.1 mM): 6.4 ± 3.6%

Q: With `CCCCCCCCC(=O)N[C@H](C)C(=O)N[C@H](Cc1ccc(O)cc1)C(=O)N[C@H](Cc1c[nH]c2ccccc12)C(=O)N[C@H](CCCN)C(=O)N[C@@H](CCCN)C(=O)NCC(=O)N[C@H](CCCN)C(=O)N[C@@H](Cc1c[nH]c2ccccc12)C(=O)N[C@@H]1C(=O)N[C@@H]([C@@H](C)CC)C(=O)N[C@@H](CC(N)=O)C(=O)NCC(=O)NCC(=O)O[C@@H]1C` [Peptide 35] (Nonanoyl-[dA][dY][dW][dOrn][Orn]G[dOrn]WTINGG; ester 9-C) as the compound, how does the “MICs against K. pneumoniae (range over strains)” value (K. pneumoniae) read?
A: 2 to 32 µg/mL

Q: And the “MICs against A. baumannii (range over strains)” value (A. baumannii)?
A: ≥ 32 µg/mL
